Values of other authors, collected in US20060193824A1, “Methods for the treatment of infectious and inflammatory airway diseases” (priority 2005, published 2006).

Experiments:
[1] = tested on: mucin release
[2] = tested on: ferret trachea
[3] = tested on: human airways
[4] = tested on: mucin secretion
[5] = tested on: mucin production
[6] = tested on: normal pancreatic cell lines; settings: extracellular ATP
[7] = tested on: human airways; remark: listed apart in the source
[8] = tested on: respiratory epithelial cells
[9] = tested on: GI tract
[10] = tested on: mucus secretion

O=C(O)CNC(=O)C(CS)Cc1ccccc1 (centres unmarked) [Thiorphan]
mucin release [1]: stimulate mucin release

CC(C)C[C@H](NC(=O)C(CS)Cc1ccccc1)C(=O)O (some centres unmarked) [leucine-thiorphan]
mucin release [1]: stimulate mucin release

FC(F)(F)C(F)(F)C(F)(F)C(F)(F)C(F)(F)C(F)(F)C(F)(F)C(F)(F)Br [perflubron, perfluorooctyl bromide]
mucin secretion [2]: stimulates mucin secretion

CCCCC/C=C\C/C=C\C/C=C\C/C=C\CCCC(=O)O [Arachidonic acid]
mucin release [3]: release mucin from human airways

CC(=O)OC(C)C[N+](C)(C)C (centres unmarked) [methacholine]
mucin secretion [4]: effective to stimulate mucin secretion

Epidermal growth factor: Epidermal growth factor, EGF, which can be obtained from Sigma (NSDSECPLSHDGYCLHDGVCMYIEALDKYACNCVVGYIGERCQYRDLKWWELR; Epidermal growth factor; UniProt P01133 971-1023, looked up)
mucin production [5]: effective to stimulate mucin production

C[N+](C)(C)CCOC(N)=O [carbachol]
mucin secretion [4]: effective to stimulate mucin secretion

Nc1ncnc2c1ncn2[C@@H]1O[C@H](COP(=O)(O)OP(=O)(O)OP(=O)(O)O)[C@@H](O)[C@H]1O [ATP]
mucin protein secretion [6]: rapidly increased mucin protein secretion

CC(C[N+](C)(C)C)OC(N)=O (centres unmarked) [bethanechol]
mucin secretion [4]: effective to stimulate mucin secretion

NCCc1c[nH]cn1 [Histamine]
mucous glycoprotein release [7]: stimulates mucous glycoprotein release

Tumor necrosis factor alpha
MUC5AC release [8]: stimulate MUC5AC release

CC(=O)N[C@H]1C(O)O[C@H](CO)[C@@H](O)[C@@H]1O (some centres unmarked) [N-acetyl-glucosamine]
mucin release [9]: stimulate mucin release in the GI tract

Interleukin 1
mucus secretagogue activity [10]: mucus secretagogue

CC(C)C[C@H](NP(=O)(O)O[C@@H]1O[C@@H](C)[C@H](O)[C@@H](O)[C@H]1O)C(=O)N[C@@H](Cc1c[nH]c2ccccc12)C(=O)O [phosphoramidon]
mucin release [1]: stimulate mucin release
